Data published in patent US20120329158A1, “Methods of Plant Regeneration and Apparatus Therefor” (priority 2010, published 2012).

System: sugarcane artificial seeds (Q208 and KQ228)
Test: Germination and conversion of sugarcane artificial seeds into plantlets in liquid MS medium with or without auxins
Conditions: MS medium supplemented with small amounts of auxin; varieties Q208 and KQ228 (FIG. 34)
Protocol: Thirty-six artificial plant seeds (approx 15 mL) were placed into a sterile 250 mL Erlenmeyer flask with 85 mL of sterile MS liquid with 30 gL^−1 sucrose. Flasks were placed on the gyratory shaker trays at 120 rpm, 27° C.±1° C., and a 16 h photoperiod provided by cool white fluorescent tubes for 2-3 weeks. The media was decanted off and replaced every 3-4 days.
In this medium the artificial plant seeds germinated and produced normal plantlets within 3 weeks (FIG. 5). The seeds change from a transparent gel bead to a brown-black colour within the first few days of being placed into liquid culture. Within 7-10 days there is shoot production from the seeds and within two weeks the shoots are elongating and root production outside of the artificial plant seed begins. Within 3 weeks the plantlet has fully developed, with both extensive shoot and root production, outside of the gel. Variations in the rate of plantlet emergence are to be expected with different genotypes (FIG. 6 and FIG. 7). Typical growth conditions for liquid culture are 120 rpm and 27° C. with a 16 hour photoperiod.
In general, plantlets produced with growth regulators were stunted if hormone levels were 1 μM compared to those obtained from growth regulator-tee MS medium. As such, MS is typically used for the liquid culture medium. Regeneration of artificial plant seeds into plantlets at a rate of 70-90% is achievable. […]

| Structure (SMILES) | conversion of artificial seeds to plantlets |
| --- | --- |
| O=C(O)CCCc1c[nH]c2ccccc12 [indole-3 butyric acid (IBA), indole-3-butyric acid] | improved conversion of seeds to plantlets |
| O=C(O)Cc1cccc2ccccc12 [α-naphthaleneacetic acid (NAA), α-naphthaleneacetic acid] | improved conversion of seeds to plantlets |
